{"source": "patent US12344606B2", "about": "“Next-generation modulators of stimulator of interferon genes (STING)” (RYVU THERAPEUTICS S.A., priority 2019, dated 2025)", "key": {"[1]": {"system": "interferon regulatory factor (IRF) pathway in THP-1 dual cells", "test": "THP-1 Dual reporter assay, IRF pathway (luciferase)", "type": "cell-based", "settings": "Homo sapiens, THP1-Dual; 18 h stimulation, luminescence", "procedure,_shortened": "(§1)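 THP-1 dual reporter cells stimulated 18 h with STING agonist; culture medium then sampled. IRF activity read as ISG54/ISRE-driven luciferase luminescence; NF-κB activity read as SEAP absorbance at 630 nm (or 655 nm) after 2 h (or 1 h) at 37° C with detection medium.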"}, "CT26 cells": {"system": "CT26 cells", "test": "CT26 re-challenge study of mice with complete responses", "type": "in vivo, Balb/C mice", "method": "Mice with complete responses were subjected to a re-challenge study. CT26 cells were injected into the flank opposite to an original site of inoculation. Naïve mice were included into the re-challenge study as a control of the tumor growth kinetics."}, "[2]": {"system": "CT26 murine colon carcinoma allografts", "test": "In vivo anti-tumor efficacy in CT26 allografts", "parameters": "species or system female Balb/C mice", "settings": "for efficacy of dose: once every fifth day x3, 10% Captisol in PBS", "method": "The efficacy of Example 1 was evaluated in established CT26 murine colon carcinoma allografts in female Balb/C mice. Example 1 was formulated in 10% Captisol in PBS and administered intravenously, once every fifth day on three occasions. The solution was prepared fresh prior to each administration. […] In both treatment groups tumor growth delay was observed when compared to the control group. By the end of the study, on day 42, there were 3 and 6 complete responses recorded for mice treated at 2 and 3 mg/kg E5Dx3, respectively."}, "[3]": {"system": "NF-κB pathway in THP-1 dual cells", "test": "THP-1 Dual reporter assay, NF-κB pathway (SEAP)", "type": "cell-based", "settings": "Homo sapiens, THP1-Dual; 18 h stimulation, absorbance; read-out: THP1 Dual EC50 (μM) NFkB", "procedure,_shortened": "as §1"}, "human STING": {"molecular_target": "human STING (Homo sapiens, UniProt Q86WV6)", "sequence (Q86WV6 whole entry H232R)": "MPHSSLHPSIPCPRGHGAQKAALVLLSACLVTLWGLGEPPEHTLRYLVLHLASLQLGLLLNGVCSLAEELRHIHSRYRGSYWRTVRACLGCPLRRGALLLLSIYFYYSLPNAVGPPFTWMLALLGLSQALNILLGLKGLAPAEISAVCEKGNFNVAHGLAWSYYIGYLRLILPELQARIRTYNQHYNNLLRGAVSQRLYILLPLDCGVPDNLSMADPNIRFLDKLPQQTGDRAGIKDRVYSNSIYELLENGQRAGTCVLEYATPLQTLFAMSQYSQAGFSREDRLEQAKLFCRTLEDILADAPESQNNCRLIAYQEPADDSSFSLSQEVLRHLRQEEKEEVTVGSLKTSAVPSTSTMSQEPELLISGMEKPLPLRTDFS", "test": "Fluorescence Thermal Shift assay (hSTING FTS binding assay)", "settings": "STING 0.1 mg/ml, 20 min preincubation, SyproOrange", "procedure,_shortened": "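STING protein (final 0.1 mg/ml) preincubated 20 min with compound in 50 mM Hepes, 150 mM NaCl, pH 7.5, then SyproOrange dye added. Thermal unfolding monitored by fluorescence from 25 to 99° C. at a continuous ramp of 0.033° C./s.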"}}, "data": [{"smiles": "COc1cc(CN(Cc2cn(C)c3ccccc3c2=O)[C@H]2CCCN(c3cccnc3)C2)ccn1", "note": "[Example 1, 3-({[(2-methoxypyridin-4-yl)methyl][(3S)-1-(pyridin-3-yl)piperidin-3-yl]amino}methyl)-1-methyl-1,4-dihydroquinolin-4-one]", "values": [{"measurement": "EC50", "setting": "[1]", "result": "≤ 1", "unit": "µM"}, {"measurement": "mice that developed tumors on re-challenge", "setting": "CT26 cells; six mice with complete responses dosed previously at 3 mg/kg, substantial delay in tumor growth", "result": "two of them developed a tumor"}, {"measurement": "mice that developed tumors on re-challenge", "setting": "CT26 cells; three mice with complete responses dosed previously at 2 mg/kg", "result": "none of them developed tumors"}, {"measurement": "TGI (tumor growth inhibition)", "setting": "[2]; 2 mg/kg E5Dx3, 11th day", "result": 52, "unit": "%"}, {"measurement": "complete responses (number of mice)", "setting": "[2]; 2 mg/kg E5Dx3, day 42", "result": 3}, {"measurement": "efficacy of dose", "setting": "[2]; 2 mg/kg i.v.", "result": "moderately efficacious dose"}, {"measurement": "TGI (tumor growth inhibition)", "setting": "[2]; 3 mg/kg E5Dx3, 11th day", "result": 80, "unit": "%"}, {"measurement": "complete responses (number of mice)", "setting": "[2]; 3 mg/kg E5Dx3, day 42", "result": 6}, {"measurement": "efficacy of dose", "setting": "[2]; 3 mg/kg i.v.", "result": "full efficacious dose"}, {"measurement": "EC50", "setting": "[3]", "result": "≤ 1", "unit": "µM"}, {"measurement": "hSTING FTS binding assay (ΔT C.°)", "setting": "human STING", "result": "++ (ΔTm>10° C.)"}]}, {"smiles": "Cc1ccc(N2CCC[C@H](N(Cc3ccnc(C)c3)Cc3cn(CC(=O)O)c4ccccc4c3=O)C2)cn1", "note": "[Example 51, 2-[3-({[(3S)-1-(6-Methylpyridin-3-yl)piperidin-3-yl][(2-methylpyridin-4-yl)methyl]amino}methyl)-4-oxo-1,4-dihydroquinolin-1-yl]acetic acid]", "values": [{"measurement": "EC50", "setting": "[1]", "result": "≥ 10", "unit": "µM"}, {"measurement": "EC50", "setting": "[3]", "result": "≥ 10", "unit": "µM"}, {"measurement": "hSTING FTS binding assay (ΔT C.°)", "setting": "human STING", "result": "++ (ΔTm>10° C.)"}]}, {"smiles": "Cc1ccc(N2CCC[C@H](N(Cc3ccnc(C)c3)Cc3cn(C4CC4)c4nc(Cl)c(F)cc4c3=O)C2)cn1", "note": "[Example 42, 7-chloro-1-cyclopropyl-6-fluoro-3-({[(3S)-1-(6-methylpyridin-3-yl)piperidin-3-yl][(2-methylpyridin-4-yl)methyl]amino}methyl)-1,4-dihydro-1,8-naphthyridin-4-one]", "values": [{"measurement": "EC50", "setting": "[1]", "result": "≤ 1", "unit": "µM"}, {"measurement": "EC50", "setting": "[3]", "result": "≤ 1", "unit": "µM"}, {"measurement": "hSTING FTS binding assay (ΔT C.°)", "setting": "human STING", "result": "++ (ΔTm>10° C.)"}]}]}
